Experimental data published in patent publication US5595903A (priority 1989, dated 1997).

Columns and labels:
AChE [1] = target: T1, AChE (Homo sapiens, UniProt P22303); assay: biochemical; assay type: biochemical
AChE [2] = target: T1, AChE; assay type: biochemical
ChE = ChE (Homo sapiens, UniProt P06276); assay type: biochemical
[3] = human, in vivo; cited from earlier work

T1 sequence (P22303 32-614): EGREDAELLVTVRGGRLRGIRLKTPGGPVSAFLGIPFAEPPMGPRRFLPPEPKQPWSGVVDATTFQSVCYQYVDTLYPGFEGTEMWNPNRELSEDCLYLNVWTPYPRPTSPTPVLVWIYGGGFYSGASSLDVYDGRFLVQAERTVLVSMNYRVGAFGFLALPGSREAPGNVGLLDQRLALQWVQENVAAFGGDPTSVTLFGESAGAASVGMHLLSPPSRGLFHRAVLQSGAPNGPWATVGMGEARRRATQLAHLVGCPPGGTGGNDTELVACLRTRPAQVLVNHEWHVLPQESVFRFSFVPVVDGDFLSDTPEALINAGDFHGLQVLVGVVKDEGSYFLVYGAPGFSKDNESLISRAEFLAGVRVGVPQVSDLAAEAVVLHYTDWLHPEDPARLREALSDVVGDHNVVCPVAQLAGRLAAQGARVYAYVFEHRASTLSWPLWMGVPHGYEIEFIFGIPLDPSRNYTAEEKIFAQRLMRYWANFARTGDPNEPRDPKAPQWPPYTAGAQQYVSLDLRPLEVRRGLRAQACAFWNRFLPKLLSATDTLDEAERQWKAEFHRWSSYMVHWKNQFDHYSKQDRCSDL

Molecule	AcThCho degraded (AChE [1]) [pmol/hr per ng mRNA]	remaining activity at 10 µM (AChE [1]) [%]	sensitivity of tumor mRNA-induced AChE activity to selective inhibitor (AChE [2])	sensitivity of oocyte-produced enzyme to inhibition (in words) (AChE [1])	sensitivity of tumor mRNA-induced ChE activity to selective inhibitor (ChE)	effect on symptoms of OP-intoxicated patients [3]
C=CC[N+](C)(C)c1ccc(CCC(=O)CCc2ccc([N+](C)(C)CC=C)cc2)cc1 [BW284C51, 1,5-bis-(4-allyldimethylammoniumphenyl)-pentan-3-one dibromide]	3 ± 1	1 ± 0.3	sensitive	–	–	–
CC(C)NP(=O)(NC(C)C)OP(=O)(NC(C)C)NC(C)C [iso-OMPA, tetraisopropylpyrophosphoramide]	280 ± 10	98 ± 3	–	totally insensitive	sensitive	–
BuChE from human serum: Purified BuChE from human serum (protein, UniProt P06276 29-602, looked up) Cholinesterase: EDDIIIATKNGKVRGMNLTVFGGTVTAFLGIPYAQPPLGRLRFKKPQSLTKWSDIWNATKYANSCCQNIDQSFPGFHGSEMWNPNTDLSEDCLYLNVWIPAPKPKNATVLIWIYGGGFQTGTSSLHVYDGKFLARVERVIVVSMNYRVGALGFLALPGNPEAPGNMGLFDQQLALQWVQKNIAAFGGNPKSVTLFGESAGAASVSLHLLSPGSHSLFTRAILQSGSFNAPWAVTSLYEARNRTLNLAKLTGCSRENETEIIKCLRNKDPQEILLNEAFVVPYGTPLSVNFGPTVDGDFLTDMPDILLELGQFKKTQILVGVNKDEGTAFLVYGAPGFSKDNNSIITRKEFQEGLKIFFPGVSEFGKESILFHYTDWVDDQRPENYREALGDVVGDYNFICPALEFTKKFSEWGNNAFFYYFEHRSSKLPWPEWMGVMHGYEIEFVFGLPLERRDNYTKAEEILSRSIVKRWANFAKYGNPNETQNNSTSWPVFKSTEQKYLTLNTESTRIMTKLRAQQCRFWTSFFPKVLEMTGNIDEAEWEWKAGFHRWNNYMMDWKNQFNDYTSKKESCVGL	–	–	–	–	–	improve the symptoms
